# Read-outs that look alike come from different tables or passages of the source.
# Assays:
# AURKA [1] = biological target: T1, AURKA (Homo sapiens, UniProt O14965); test: AURKA degradation, Simple Western; format: cell-based; set-up: Representative Western blot showing levels of endogenous proteins MDR1, MYCN, AURKA, and CRBN in untreated cell lines; endogenous in cells; host or cells: NGP, IMR-32, SJNB-8, SK-N-BE(2)-C, SK-N-SH, SK-N-AS, SJNB-1, RPE, HEK293T; settings: for pDC50: AURKA degradation; for DC50: read-out: AURKA DC50; for AURKA degradation (in words): IMR-32, 24h treatment;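 for AURKA Degradation 24h @1000nM: measured in NGP neuroblastoma cells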;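 for AURKA Degradation 24h @100nM: measured in NGP neuroblastoma cells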
# T1 sequence (O14965 1-403): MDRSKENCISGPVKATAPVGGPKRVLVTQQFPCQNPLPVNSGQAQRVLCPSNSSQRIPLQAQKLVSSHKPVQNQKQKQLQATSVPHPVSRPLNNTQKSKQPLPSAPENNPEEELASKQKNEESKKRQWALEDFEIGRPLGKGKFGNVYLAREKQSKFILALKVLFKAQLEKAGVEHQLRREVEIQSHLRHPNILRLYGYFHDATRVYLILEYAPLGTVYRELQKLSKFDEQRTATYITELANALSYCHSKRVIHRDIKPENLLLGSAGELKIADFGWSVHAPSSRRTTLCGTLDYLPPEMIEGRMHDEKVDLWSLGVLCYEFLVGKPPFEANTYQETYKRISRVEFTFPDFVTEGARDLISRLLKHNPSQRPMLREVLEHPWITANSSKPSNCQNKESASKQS
# Description: (§1) Cells were seeded in T-25 flasks at different densities ranging from 1 to 2 million cells per flask and allowed to adhere for 1–2 days. In experiments involving compound treatment, this was done by medium replacement containing the compound(s) of interest in their corresponding concentrations. In competition binding experiments, cells were first pretreated with an excess of MK-5108, thalidomide or MG-132 for 1 h by shaking gently at room temperature prior to addition of SK4454 or SK5527. All samples were normalized to contain the same percentage of DMSO as the negative DMSO controls. Cells were harvested on ice at their respective time points by scraping, washed with ice-cold PBS to collect remaining cells, and centrifuged (2500 rpm, 4 °C). A second washing and centrifugation step was performed prior to collection of the final cell pellets which were then snap-frozen in liquid nitrogen and kept frozen at −80 °C until further processing. Lysis of cell pellets occurred in cold RIPA buffer (0.5% w/v Sodium Deoxycholate, 150 mM NaCl, 50 mM TrisHCl pH 7.5, 0.1% w/v SDS, 1% w/v NP-40) supplemented with protease and phosphatase inhibitors (Roche, #11836145001, #04906845001) by rotating gently at 4 °C for 1h, followed by a centrifugation step for 10 min (10,000 rpm, 4 °C). The supernatant was collected and concentrations of the obtained protein lysates were measured using the Pierce BCA Protein Assay Kit (Thermo Fisher Scientific, #23227).
# (§2) Simple Western analyses were performed with the Wes instrument (Bio-Techne) using the 12–230 kDa Wes Separation module and the EZ standard pack reagent 1 (Biotechne, #SM-W001, #PS-ST01EZ-8) following the manufacturer’s protocol. Protein lysates were loaded at 0.8 μg/μL under denaturing conditions (0.2 μg/μL for MYCN detection). Chemiluminescence peaks were generated by the Compass Software (Bio-Techne) and the area under the peaks calculated using the Gaussian fit method. Per lane, quantified data were always normalized to that of the loading control (Vinculin) prior to calculating fold changes relative to the negative DMSO control. Mean fold changes are calculated from 3 individual experiments. A list of the primary and secondary antibodies used can be found in the Supporting Information (Supplementary Table S7).
# (§3) Graphs were generated using GraphPad Prism Software (version 10.1.2) or RStudio (R-4.3.2). All dose–response curves were computed on GraphPad Prism using the Variable Slope (four parameters) equation. Absolute half-maximal degradation (DC50), growth inhibitory (GI50) and enzymatic inhibitory (IC50) concentrations, as well as inhibition constants (Ki) were derived from dose–response curves via interpolation. Statistical tests were performed on GraphPad Prism and detailed in the figure legends. Unless otherwise stated, “n” in the figure legends indicates the number of independent experiments conducted at different times.
# Plasma stability assay = format: in vitro ADME, CD-1 mouse; settings: for half-life at 1 μM: read-out: plasma t1/2
# Description: (§4) Plasma and metabolic stability tests were performed by Eurofins Discovery. For the plasma stability assay, test compounds were incubated in CD-1 mouse plasma for 0, 0.5, 1, 1.5, and 2 h at 37 °C at a concentration of 1 μM. For the metabolic stability assay, test compounds were incubated at 37 °C in either (1) CD-1 mouse liver microsomes (MLM) (0.1 mg/mL) at a concentration of 0.1 μM for 0, 15, 30, 45, and 60 min or (2) CD-1 mouse hepatocytes (MH) (0.7 million viable cells/mL) at a concentration of 1 μM for 0, 0.5, 1, 1.5, and 2 h. At the respective time points, acetonitrile was added to the incubation mixture followed by centrifugation. Samples were analyzed by HPLC-MS/MS and peak areas were recorded for each analyte. Compound stability, expressed as the percentage of parent compound remaining, was calculated by comparing the peak area of the compound at each time point relative to that of the 0h time point. Percentage compound remaining is plotted as a function of time as a logarithmic curve. Half-life (t 1/2) is estimated from the slope of the initial linear range of the curve, assuming first-order kinetics. […] Both plasma and metabolic assay experiments were performed once with 2 replicate samples each.
# NGP = test: IncuCyte live-cell imaging, antiproliferative effect; format: cell-based; settings: Homo sapiens, 72 h
# Excerpt: (§5) Human neuroblastoma cell lines NGP, IMR-32, SJNB-8, SK-N-BE(2)-C, SJNB-1, SK-N-SH and SK-N-AS, as well as benign immortalized cell lines RPE and HEK293T were either bought commercially or obtained through research laboratories. […] Screening for mycoplasma contamination occurred routinely on the cells. Human neuroblastoma cell lines SH-SY5Y_shABCB1 & SH-SY5Y_shNTC were generated by transduction with pLKO.1-ABCB1_TRCN0000059683 shRNA (Sigma MISSION SHCLND) or pLKO.1-puro NT shRNA (Sigma MISSION SHC002) vectors respectively (Supplementary Table S6), packaged using Lenti-X293T (Clontech). Transduced cells were selected with 2 μg/mL puromycin. These cells were cultured in DMEM 4.5 g/L D-Glucose, L-Glutamine and 110 mg/L Sodium Pyruvate (Gibco, #11995065) supplemented with 10% fetal bovine serum, 1× Antibiotic-Antimycotic solution (Sigma-Aldrich, #A5955) and 1× MEM nonessential amino acids (Sigma-Aldrich, #M7145). Incubation of all cells occurred at 37 °C and 5% CO2.
# (§6) Neuroblastoma cells were seeded in 384-well plates at different densities ranging from 1200 to 5000 cells/well and allowed to adhere overnight. RPE and HEK293T were seeded at 200 and 600 cells/well, respectively. Compound treatment was performed using the D300e Digital Dispenser (Tecan) in duplicate or triplicate and cell confluency was monitored over time using the IncuCyte Live-cell imaging system (Sartorius). […] Mean normalized confluences were calculated from 3 individual experiments.
# (§7) All dose–response curves were computed on GraphPad Prism using the Variable Slope (four parameters) equation. Absolute half-maximal degradation (DC50), growth inhibitory (GI50) and enzymatic inhibitory (IC50) concentrations, as well as inhibition constants (Ki) were derived from dose–response curves via interpolation. Statistical tests were performed on GraphPad Prism and detailed in the figure legends. Unless otherwise stated, “n” in the figure legends indicates the number of independent experiments conducted at different times.
# [2] = Metabolic stability in mouse hepatocytes (MH); format: in vitro ADME, CD-1 mouse; settings: CD-1
# Description: as §4
# [3] = Metabolic stability in mouse liver microsomes (MLM); format: in vitro ADME, CD-1 mouse; settings: CD-1
# Description: as §4
# CRBN = biological target: T2, CRBN (Homo sapiens, UniProt Q96SW2); test: CRBN binding assay (E3scan, Eurofins Discovery)
# T2 construct: purchased Eurofins Discovery
# T2 sequence (Q96SW2 whole entry): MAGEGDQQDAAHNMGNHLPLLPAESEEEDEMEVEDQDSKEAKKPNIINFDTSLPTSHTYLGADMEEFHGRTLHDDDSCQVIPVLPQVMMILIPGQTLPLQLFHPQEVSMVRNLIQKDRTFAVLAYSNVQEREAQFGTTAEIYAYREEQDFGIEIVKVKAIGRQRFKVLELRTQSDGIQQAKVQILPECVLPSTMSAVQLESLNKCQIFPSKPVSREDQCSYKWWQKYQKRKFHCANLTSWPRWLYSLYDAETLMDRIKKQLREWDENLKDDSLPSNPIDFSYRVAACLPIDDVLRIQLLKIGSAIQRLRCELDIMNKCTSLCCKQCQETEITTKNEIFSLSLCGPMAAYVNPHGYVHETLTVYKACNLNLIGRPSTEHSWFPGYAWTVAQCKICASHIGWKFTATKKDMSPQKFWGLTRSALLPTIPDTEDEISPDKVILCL
# Description: (§8) AURKA, AURKB and CRBN binding assays were performed by Eurofins Discovery using the KdELECT Kinase Assay Panel (AURKA and AURKB), or the E3scan Ligand Binding Assay Technology (CRBN). More information can be found on the Eurofins Discovery Web site.
# as §3
# MYCN = MYCN protein levels, Simple Western; format: cell-based, human; settings: IMR-32
# Description: as §1, §2, §3
# IMR-32 = test: IncuCyte live-cell imaging, antiproliferative effect; format: cell-based; settings: Homo sapiens, IMR-32, 72 h; read-out: GI50
# Excerpt: as §5, §6, §7
# AURKA [4] = biological target: T1, AURKA; test: AURKA binding assay (KINOMEscan / KdELECT, Eurofins Discovery); set-up: purchased Eurofins Discovery
# Description: as §8, §3
SMILES,AURKA Degradation 24h @100nM (AURKA [1]),AURKA Degradation 24h @1000nM (AURKA [1]),"half-life at 1 μM (Plasma stability assay; CD-1, mouse, plasma) [h]","GI50 (NGP; read-out: GI50 72h, 72h) [nM]",GI50 (NGP; read-out: pGI50 (converted)) [nM],hepatocyte CLint at 1 μM [2] [µL/min/1e6 cells],microsomal CLint at 0.1 μM [3] [µL/min/mg],pDC50 (AURKA [1]),"AURKA degradation activity (in words) (AURKA [1]; NGP, 24 h treatment)","Dmax (AURKA [1]; NGP, 24 h treatment) [%]",DC50 (AURKA [1]) [nM],"half-life at 1 μM (Plasma stability assay; CD-1 mouse plasma, 1 μM, 37 °C) [h]",plasma t1/2 (Plasma stability assay; plasma) [h],Ki (CRBN) [nM],MYCN destabilization (in words) (MYCN),AURKA degradation (in words) (AURKA [1]),GI50 (IMR-32) [nM],CRBN binding (in words) (CRBN),"DC50 (AURKA [1]; NGP, 24 h treatment) [nM]",AURKA binding (in words) (AURKA [4])
O=C1CCN(Cc2ccc(C3CCN(C4CN(C(=O)[C@]5(Cc6cccc(Nc7nccs7)n6)CC[C@@H](Oc6cccc(Cl)c6F)CC5)C4)CC3)nc2)C(=O)N1 [PROTAC 22],86,87,> 2,46,46.8,< 4.1,693,,,,,,,,,,,,,
O=C1CCN(Cc2ccc(C3CCN(CC4CCN(C(=O)[C@]5(Cc6cccc(Nc7nccs7)n6)CC[C@@H](Oc6cccc(Cl)c6F)CC5)CC4)CC3)nc2)C(=O)N1 [PROTAC 21],78,82,,46,45.7,< 4.1,186,"7,97",slightly reduced degradation potency compared to SK2188,85,10.8,> 2,> 2,455,,,,,,
Cc1cc(Nc2ccc(F)c(CC3(C(=O)N4CCC(F)(CN5CCN(c6ccc(N7CCC(=O)N(C)C7=O)cn6)CC5)CC4)CCN(Cc4cccc(Cl)c4F)CC3)n2)n[nH]1 [SK5527-CRBi],,,,,,,,,,,,,,,failed to destabilize MYCN,failed to degrade AURKA,~500,inability to bind,,
O=C1CCC(Nc2ccc(N3CCN(C4CN(C(=O)[C@]5(Cc6cccc(Nc7nccs7)n6)CC[C@@H](Oc6cccc(Cl)c6F)CC5)C4)CC3)nc2)C(=O)N1 (stereo partly drawn) [PROTAC 20],90,90,,19,19.1,< 4.1,738,"8,76",,94,1.7,> 2,> 2,3180,,,,,2,
O=C1CCN(c2ccc(N3CCN(CC4CCN(C(=O)[C@]5(Cc6cccc(Nc7nccs7)n6)CC[C@@H](Oc6cccc(Cl)c6F)CC5)C4)CC3)nc2)C(=O)N1 (stereo partly drawn) [PROTAC 25],90,87,> 2,33,32.4,13.6,426,"8,47",,,3.4,,,,,,,,,
Cc1cc(Nc2ccc(F)c(CC3(C(=O)N4CCC(F)(CN5CCC(c6ccc(N7CCC(=O)NC7=O)cn6)CC5)CC4)CCN(Cc4cccc(Cl)c4F)CC3)n2)n[nH]1 [PROTAC 37],84,86,> 2,45,44.7,4.5,617,,,,,,,,,,,,,
Cc1cc(N(C)c2ccc(F)c(CC3(C(=O)N4CCC(F)(CN5CCN(c6ccc(N7CCC(=O)NC7=O)cn6)CC5)CC4)CCN(Cc4cccc(Cl)c4F)CC3)n2)n[nH]1 [SK5527-AURi],,,,,,,,,,,,,,,failed to destabilize MYCN,failed to degrade AURKA,~9000,,,inability to bind
